Data reported in US20020137750A1, “Amidine derivatives which are inhibitors of nitric oxide synthase” (priority 1999, published 2002).

A melting point of 126 to 127 °C was found for `N=C(Nc1ccc(OC2CCCC2)c(CN2CCC[C@@H]2CO)c1)c1cccs1` [Example 21, N-(4-(Cyclopentyloxy)-3{[(2R)-2-(Hydroxymethyl)Pyrrolidinyl]Methyl}Phenyl)-2-Thiophenecarboximidamide] in this work.
A melting point of 116 to 118 °C was found for `CN(CCO)Cc1cc(NC(=N)c2cccs2)ccc1C1CCCC1` [Example 30, N-(4-Cyclopentyl-3-{[(2-Hydroxyethyl)(Methyl)Amino]Methyl}Phenyl)-2-Thiophenecarboximidamide] in this work.
A melting point of 132 to 133 °C was found for `N=C(Nc1ccc(C2CCCC2)c(CN2CCC[C@H]2CO)c1)c1cccs1` [Example 31, N-(4-Cyclopentyl-3-{[(2S)-2-(Hydroxymethyl)Pyrrolidinyl]Methyl}Phenyl)-2-Thiophenecarboximidamide] in this work.
